Results: patent US4814455A, “Dihydro-3,5-dicarboxylates” (Bristol-Myers Company, priority 1986, dated 1989)
Structures can show the parent of a compound that is named as a salt. Where two headings read alike, the source gives them in different places.

Assays:
[1] = system: globally ischemic rat myocardium; assay: Autolysis: protection of high energy phosphate stores in globally ischemic rat myocardium; parameters: Autolysis (% Protection): concentration or dose not given beside the values; details: for Autolysis (% Protection): protection of high energy phosphate stores in globally ischemic rat myocardium
rat dorsal aorta = rat dorsal aorta (Rattus norvegicus, UniProt P22002); assay: cell-based; details: read-out: Calcium Entry Blockade (pA2) (converted)
Excerpt: Calcium ion entry blockade was studied in various smooth muscle systems such as rat dorsal aorta, portal vein, and trachea.

[2] = pA2 = negative log of molar antagonist concentration giving dose ratio of 2, active if 7 or greater

Sequence of rat dorsal aorta (P22002 whole entry): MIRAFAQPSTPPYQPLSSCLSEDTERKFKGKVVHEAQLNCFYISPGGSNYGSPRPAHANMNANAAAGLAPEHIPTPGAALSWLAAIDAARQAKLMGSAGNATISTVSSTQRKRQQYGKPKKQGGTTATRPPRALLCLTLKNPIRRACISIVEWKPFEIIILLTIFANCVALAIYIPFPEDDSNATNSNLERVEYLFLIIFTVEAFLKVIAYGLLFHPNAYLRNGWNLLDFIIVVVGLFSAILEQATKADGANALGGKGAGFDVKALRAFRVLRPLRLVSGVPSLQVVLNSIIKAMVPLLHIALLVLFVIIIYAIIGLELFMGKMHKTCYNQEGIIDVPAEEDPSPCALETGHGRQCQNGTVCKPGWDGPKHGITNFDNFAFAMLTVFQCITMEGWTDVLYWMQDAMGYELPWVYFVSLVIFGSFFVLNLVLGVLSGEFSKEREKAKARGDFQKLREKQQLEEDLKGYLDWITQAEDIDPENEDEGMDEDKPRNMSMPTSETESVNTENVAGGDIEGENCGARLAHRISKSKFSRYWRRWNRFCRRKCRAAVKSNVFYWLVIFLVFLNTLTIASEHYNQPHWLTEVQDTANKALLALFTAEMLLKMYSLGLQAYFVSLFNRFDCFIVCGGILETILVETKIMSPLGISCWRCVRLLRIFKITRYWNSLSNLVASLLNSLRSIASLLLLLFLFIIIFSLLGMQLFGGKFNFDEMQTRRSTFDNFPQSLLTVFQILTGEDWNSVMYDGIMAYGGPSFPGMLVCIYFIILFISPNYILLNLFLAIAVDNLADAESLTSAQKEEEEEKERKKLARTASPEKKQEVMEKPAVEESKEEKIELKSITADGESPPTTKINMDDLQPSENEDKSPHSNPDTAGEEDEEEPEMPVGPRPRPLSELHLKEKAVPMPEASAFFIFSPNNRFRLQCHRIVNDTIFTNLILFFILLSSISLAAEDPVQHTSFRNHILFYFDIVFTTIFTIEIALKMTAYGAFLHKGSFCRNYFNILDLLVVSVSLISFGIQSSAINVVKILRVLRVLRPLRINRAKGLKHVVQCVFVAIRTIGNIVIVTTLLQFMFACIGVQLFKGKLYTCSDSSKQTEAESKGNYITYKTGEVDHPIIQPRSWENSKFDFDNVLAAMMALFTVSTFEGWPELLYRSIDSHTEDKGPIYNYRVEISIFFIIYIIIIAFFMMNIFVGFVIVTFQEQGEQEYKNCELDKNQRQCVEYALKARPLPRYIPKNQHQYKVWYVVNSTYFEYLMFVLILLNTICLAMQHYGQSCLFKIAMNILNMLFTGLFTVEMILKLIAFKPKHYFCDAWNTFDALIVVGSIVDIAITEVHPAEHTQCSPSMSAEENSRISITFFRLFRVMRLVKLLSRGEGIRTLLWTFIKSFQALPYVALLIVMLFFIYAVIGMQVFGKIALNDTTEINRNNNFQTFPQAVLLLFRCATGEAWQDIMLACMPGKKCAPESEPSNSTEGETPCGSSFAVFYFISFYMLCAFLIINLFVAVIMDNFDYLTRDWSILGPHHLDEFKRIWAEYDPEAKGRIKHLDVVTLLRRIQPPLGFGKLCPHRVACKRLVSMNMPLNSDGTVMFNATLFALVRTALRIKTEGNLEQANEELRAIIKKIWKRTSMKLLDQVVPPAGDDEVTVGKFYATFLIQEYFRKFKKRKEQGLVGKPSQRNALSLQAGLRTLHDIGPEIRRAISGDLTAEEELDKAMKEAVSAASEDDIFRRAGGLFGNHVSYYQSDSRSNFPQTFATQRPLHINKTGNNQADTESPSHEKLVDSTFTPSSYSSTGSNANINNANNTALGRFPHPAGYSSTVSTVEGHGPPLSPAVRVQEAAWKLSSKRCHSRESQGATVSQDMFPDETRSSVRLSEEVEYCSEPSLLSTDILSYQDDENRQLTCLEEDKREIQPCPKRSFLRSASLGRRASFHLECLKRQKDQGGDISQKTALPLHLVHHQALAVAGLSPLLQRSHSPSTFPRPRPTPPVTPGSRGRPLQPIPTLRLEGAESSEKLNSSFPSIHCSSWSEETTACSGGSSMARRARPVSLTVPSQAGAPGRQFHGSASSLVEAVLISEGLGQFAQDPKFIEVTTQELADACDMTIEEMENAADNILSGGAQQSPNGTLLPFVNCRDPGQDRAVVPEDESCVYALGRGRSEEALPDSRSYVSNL
Sequence of rat dorsal aorta (P54290 25-944 partner limits assumed): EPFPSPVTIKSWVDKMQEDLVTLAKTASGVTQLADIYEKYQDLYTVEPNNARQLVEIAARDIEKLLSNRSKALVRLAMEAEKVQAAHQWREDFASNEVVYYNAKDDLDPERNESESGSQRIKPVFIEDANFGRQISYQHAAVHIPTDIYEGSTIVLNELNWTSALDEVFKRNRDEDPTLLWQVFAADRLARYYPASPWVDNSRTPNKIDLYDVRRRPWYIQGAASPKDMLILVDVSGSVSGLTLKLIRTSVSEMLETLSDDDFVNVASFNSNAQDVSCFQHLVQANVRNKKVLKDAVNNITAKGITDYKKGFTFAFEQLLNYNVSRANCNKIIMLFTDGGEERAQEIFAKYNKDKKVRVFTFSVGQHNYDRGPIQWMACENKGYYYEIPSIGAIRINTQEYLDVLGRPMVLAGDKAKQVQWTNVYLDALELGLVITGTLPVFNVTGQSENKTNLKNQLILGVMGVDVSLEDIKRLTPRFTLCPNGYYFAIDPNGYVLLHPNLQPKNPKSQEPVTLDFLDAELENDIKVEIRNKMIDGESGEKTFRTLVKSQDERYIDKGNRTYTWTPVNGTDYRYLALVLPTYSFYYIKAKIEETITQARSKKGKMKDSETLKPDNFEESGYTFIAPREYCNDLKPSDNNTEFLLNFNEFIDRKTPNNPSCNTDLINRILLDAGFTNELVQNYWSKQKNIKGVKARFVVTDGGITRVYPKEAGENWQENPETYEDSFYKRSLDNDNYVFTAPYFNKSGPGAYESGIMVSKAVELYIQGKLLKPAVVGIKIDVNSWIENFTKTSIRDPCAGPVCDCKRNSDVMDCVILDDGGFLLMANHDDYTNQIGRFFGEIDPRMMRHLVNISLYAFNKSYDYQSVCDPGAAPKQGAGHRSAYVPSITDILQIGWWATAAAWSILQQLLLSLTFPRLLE
Sequence of rat dorsal aorta (P54290 945-1091 partner limits assumed): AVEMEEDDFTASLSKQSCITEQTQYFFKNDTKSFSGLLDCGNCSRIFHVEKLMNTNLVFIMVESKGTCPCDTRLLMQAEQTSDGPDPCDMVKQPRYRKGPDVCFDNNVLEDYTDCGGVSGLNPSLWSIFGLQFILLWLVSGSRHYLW

Row | Kb (rat dorsal aorta; [2]) [nM] | Kb (rat dorsal aorta; […], active if 7 or greater) [nM] | Structure (SMILES) | Autolysis (% Protection) [1] [%] | anti-ischemia action / protection against autolysis caused by ischemia ([1]; in words, in vitro and in vivo laboratory tests)
1 | 0.468 |  | COC(=O)C1=C(C)NC(C)=C(C(=O)OCCCNCCOc2ccccc2)C1c1cccc([N+](=O)[O-])c1 (centres unmarked) [Example 35] | 21 | 
2 | 0.251 |  | COC(=O)C1=C(C)NC(C)=C(C(=O)OCCCN(C)CC[S+]([O-])c2ccccc2)C1c1cccc([N+](=O)[O-])c1 (centres unmarked) [Example 47, Methyl [3-[N-Methyl-N-[2-phenylsulfinyl)ethyl]amino]propyl] 1,4-Dihydro-2,6-dimethyl-4-(3-nitrophenyl)-3,5-pyridinedicarboxylate Hydrochloride Hydrate] | 21 | 
3 | 8.32 |  | COC(=O)C1=C(C)NC(C)=C(C(=O)OCCCNCCSc2ccccc2)C1c1cccc([N+](=O)[O-])c1 (centres unmarked) [Example 42] |  | 
4 | 0.933 |  | CCCCN(CCCOC(=O)C1=C(C)NC(C)=C(C(=O)OC)C1c1cccc([N+](=O)[O-])c1)CCOc1ccccc1 (centres unmarked) [Example 44, [3-[[N-Butyl-N-(2-phenoxyethyl)]amino]propyl]Methyl 1,4-Dihydro-2,6-dimethyl-4-(3-nitrophenyl)-3,5-pyridinedicarboxylate Hydrochloride Hemihydrate] | 16 | 
5 | 3.63 |  | COC(=O)C1=C(C)NC(C)=C(C(=O)OCCCN(C)CCCSc2ccccc2)C1c1cccc([N+](=O)[O-])c1 (centres unmarked) [Example 40] | 23 | 
6 | 0.129 |  | COC(=O)C1=C(C)NC(C)=C(C(=O)OCCCN(C)CCNc2ccccc2)C1c1cccc([N+](=O)[O-])c1 (centres unmarked) [Example 37] | 23 | 

The next lines start with the compound.

Row | Structure (SMILES) | Kb (rat dorsal aorta; [2]) [nM] | Kb (rat dorsal aorta; […], active if 7 or greater) [nM] | Autolysis (% Protection) [1] [%] | anti-ischemia action / protection against autolysis caused by ischemia ([1]; in words, in vitro and in vivo laboratory tests)
7 | COC(=O)C1=C(C)NC(C)=C(C(=O)OCCCN(C)CCN(Cc2ccccc2)c2ccccc2)C1c1cccc([N+](=O)[O-])c1 (centres unmarked) [Example 38] |  |  | 16 | 
8 | COC(=O)C1=C(C)NC(C)=C(C(=O)OCCCN(C)CCN(C)c2ccccc2)C1c1cccc([N+](=O)[O-])c1 (centres unmarked) [Example 36] | 0.126 |  | 12 | 
9 | COC(=O)C1=C(C)NC(C)=C(C(=O)OCCCN(CCSc2ccccc2)CCSc2ccccc2)C1c1cccc([N+](=O)[O-])c1 (centres unmarked) [Example 43] | 2.4 |  | 2 | 
10 | COC(=O)C1=C(C)NC(C)=C(C(=O)OCCCN(C)CCSc2ccccc2)C1c1cccc([N+](=O)[O-])c1.Cl (centres unmarked) [Example 34, Methyl [3-[N-Methyl-N-[2-(phenylthio)ethyl]amino]propyl] 1,4-Dihydro-2,6-dimethyl-4-(3-nitrophenyl)-3,5-pyridinedicarboxylate Hydrochloride] |  | 0.126 | 43 | 
11 | COC(=O)C1=C(C)NC(C)=C(C(=O)OCCN(C)Cc2ccccc2)C1c1cccc([N+](=O)[O-])c1 (centres unmarked) [Nicardipine, reference compound] | 1.12 |  | 0 | fails to provide any protection against autolysis caused by ischemia
12 | COC(=O)C1=C(C)NC(C)=C(C(=O)OCCCN(CCSc2ccccc2)Cc2ccccc2)C1c1cccc([N+](=O)[O-])c1.Cl (centres unmarked) [Example 46, Methyl [3-[N-(Phenylmethyl)-N-[2-(phenylthio)ethyl]amino]propyl] 1,4-Dihydro-2,6-dimethyl-4-(3-nitrophenyl)-3,5-pyridinedicarboxylate Hydrochloride] |  | 5.62 | 3 | 
13 | COC(=O)C1=C(C)NC(C)=C(C(=O)OCCCN(CCN(C)c2ccccc2)Cc2ccccc2)C1c1cccc([N+](=O)[O-])c1 (centres unmarked) [Example 45, [3-[[[2-(N-Methyl-N-phenyl)amino]ethyl]-N'-phenylmethyl]propyl]Methyl 1,4-Dihydro-2,6-dimethyl-4-(3-nitrophenyl)-3,5-pyridinedicarboxylate Dihydrochloride Sesquihydrate] | 0.794 |  |  | 
14 | COC(=O)C1=C(C)NC(C)=C(C(=O)OCCCN(C)CCSc2ccccc2OC)C1c1cccc([N+](=O)[O-])c1 (centres unmarked) [Example 41] | 2.75 |  |  | 
15 | COC(=O)C1=C(C)NC(C)=C(C(=O)OCCCNCCc2c[nH]c3ccccc23)C1c1cccc([N+](=O)[O-])c1 (centres unmarked) [Example 33] | 0.0316 |  | 35 | 
16 | COC(=O)C1=C(C)NC(C)=C(C(=O)OCCCN(C)CCSc2ccc(C(C)(C)C)cc2C)C1c1cccc([N+](=O)[O-])c1 (centres unmarked) [Example 39] | 14.5 |  | 51 | 
17 | COC(=O)C1=C(C)NC(C)=C(C(=O)OCCCNCCNc2ccccc2)C1c1cccc([N+](=O)[O-])c1 (centres unmarked) [Example 32] | 2.95 |  | 0 | 
18 | COC(=O)C1=C(C)NC(C)=C(C(=O)OC)C1c1ccccc1[N+](=O)[O-] [Nifedipine, 4-(2'-nitrophenyl)-2,6-dimethyl-3,5-dicarbomethoxy-1,4-dihydropyridine, reference compound] |  |  | 21 | 
